Test results published in ChEMBL document CHEMBL4673219, “Novel 5,6-disubstituted pyrrolo[2,3-d]pyrimidine derivatives as broad spectrum antiproliferative agents: Synthesis, cell based assays, kinase profile and molecular docking study” (Bioorg Med Chem, 2018).

How the values were obtained:
SK-MEL-5 [1] = experiment: Growth inhibition of human SK-MEL-5 cells assessed as growth percentage at 100 uM incubated for 48 hrs by sulforhodamine B assay relative to control; type: functional; details: read-out: Activity
NCI-H460 [2] = experiment: Growth inhibition of human NCI-H460 cells assessed as growth percentage at 100 uM incubated for 48 hrs by sulforhodamine B assay relative to control; type: functional; details: read-out: Activity
DU-145 [3] = experiment: Growth inhibition of human DU-145 cells assessed as growth percentage at 0.01 uM incubated for 48 hrs by sulforhodamine B assay relative to control; type: functional; details: read-out: Activity
HCT-15 [4] = experiment: Growth inhibition of human HCT-15 cells assessed as growth percentage at 1 uM incubated for 48 hrs by sulforhodamine B assay relative to control; type: functional; details: read-out: Activity
LOX IMVI = experiment: Growth inhibition of human LOX IMVI cells assessed as growth percentage at 0.1 uM incubated for 48 hrs by sulforhodamine B assay relative to control; type: functional; details: read-out: Activity
HT-29 = experiment: Growth inhibition of human HT-29 cells assessed as growth percentage at 0.01 uM incubated for 48 hrs by sulforhodamine B assay relative to control; type: functional; details: read-out: Activity
NCI-H522 [5] = experiment: Growth inhibition of human NCI-H522 cells assessed as growth percentage at 10 uM incubated for 48 hrs by sulforhodamine B assay relative to control; type: functional; details: read-out: Activity
OVCAR-4 = experiment: Growth inhibition of human OVCAR-4 cells incubated for 48 hrs by sulforhodamine B assay; type: functional
SR [6] = experiment: Growth inhibition of human SR cells assessed as growth percentage at 1 uM incubated for 48 hrs by sulforhodamine B assay relative to control; type: functional; details: read-out: Activity
NCI-H322M = experiment: Growth inhibition of human NCI-H322M cells assessed as growth percentage at 100 uM incubated for 48 hrs by sulforhodamine B assay relative to control; type: functional; details: read-out: Activity
CCRF-CEM [7] = experiment: Growth inhibition of human CCRF-CEM cells assessed as growth percentage at 100 uM incubated for 48 hrs by sulforhodamine B assay relative to control; type: functional; details: read-out: Activity
MDA-MB-231 = experiment: Growth inhibition of human MDA-MB-231/ATCC cells incubated for 48 hrs by sulforhodamine B assay; type: functional
TK-10 = experiment: Growth inhibition of human TK-10 cells assessed as growth percentage at 10 uM incubated for 48 hrs by sulforhodamine B assay relative to control; type: functional; details: read-out: Activity
SF-539 = experiment: Growth inhibition of human SF-539 cells incubated for 48 hrs by sulforhodamine B assay; type: functional
NCI/ADR-RES [8] = experiment: Growth inhibition of human NCI/ADR-RES cells assessed as growth percentage at 0.01 uM incubated for 48 hrs by sulforhodamine B assay relative to control; type: functional; details: read-out: Activity
SNB-75 = experiment: Growth inhibition of human SNB-75 cells assessed as growth percentage at 10 uM incubated for 48 hrs by sulforhodamine B assay relative to control; type: functional; details: read-out: Activity
Malme-3M [9] = experiment: Growth inhibition of human Malme-3M cells assessed as growth percentage at 10 uM incubated for 48 hrs by sulforhodamine B assay relative to control; type: functional; details: read-out: Activity
MDA-MB-468 = experiment: Growth inhibition of human MDA-MB-468 cells assessed as growth percentage at 0.01 uM incubated for 48 hrs by sulforhodamine B assay relative to control; type: functional; details: read-out: Activity
M14 = experiment: Growth inhibition of human M14 cells assessed as growth percentage at 10 uM incubated for 48 hrs by sulforhodamine B assay relative to control; type: functional; details: read-out: Activity
A549 = experiment: Growth inhibition of human A549/ATCC cells assessed as growth percentage at 10 uM incubated for 48 hrs by sulforhodamine B assay relative to control; type: functional; details: read-out: Activity
Malme-3M [10] = experiment: Growth inhibition of human Malme-3M cells incubated for 48 hrs by sulforhodamine B assay; type: functional; details: for GI50: 48 h
[11] = molecular target: Fibroblast growth factor receptor 1 (Homo sapiens) (UniProt P11362); experiment: Inhibition of human FGFR1 at 10 uM using myelin basic protein as substrate incubated for 40 mins in presence of [gamma33P]ATP by scintillation counting method relative to control
Chain of Fibroblast growth factor receptor 1 (Homo sapiens) (P11362 22-822 limits assumed): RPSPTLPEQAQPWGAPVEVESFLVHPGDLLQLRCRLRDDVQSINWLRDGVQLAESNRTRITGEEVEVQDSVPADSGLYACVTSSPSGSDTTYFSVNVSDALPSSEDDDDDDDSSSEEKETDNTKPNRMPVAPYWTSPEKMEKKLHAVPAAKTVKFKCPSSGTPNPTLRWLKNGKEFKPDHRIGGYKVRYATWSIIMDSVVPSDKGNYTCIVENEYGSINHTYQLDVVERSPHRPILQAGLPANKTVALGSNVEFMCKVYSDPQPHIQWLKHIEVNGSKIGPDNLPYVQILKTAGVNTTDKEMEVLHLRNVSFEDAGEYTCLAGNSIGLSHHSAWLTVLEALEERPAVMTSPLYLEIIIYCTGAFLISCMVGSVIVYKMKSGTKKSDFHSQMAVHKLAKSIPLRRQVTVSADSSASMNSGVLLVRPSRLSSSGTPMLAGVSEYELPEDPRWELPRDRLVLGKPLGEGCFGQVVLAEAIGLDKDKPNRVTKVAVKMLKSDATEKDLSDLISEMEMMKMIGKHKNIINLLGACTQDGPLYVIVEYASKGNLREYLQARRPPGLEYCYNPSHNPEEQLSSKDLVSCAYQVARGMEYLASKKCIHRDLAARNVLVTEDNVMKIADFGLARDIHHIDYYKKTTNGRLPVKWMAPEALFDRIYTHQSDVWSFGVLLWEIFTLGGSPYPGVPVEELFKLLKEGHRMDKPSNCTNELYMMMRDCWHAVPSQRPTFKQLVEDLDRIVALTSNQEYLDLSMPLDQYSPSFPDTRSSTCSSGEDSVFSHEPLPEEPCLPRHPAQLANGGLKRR

UACC-62 = experiment: Growth inhibition of human UACC-62 cells assessed as growth percentage at 10 uM incubated for 48 hrs by sulforhodamine B assay relative to control; type: functional; details: read-out: Activity
HCT-15 [12] = experiment: Growth inhibition of human HCT-15 cells assessed as growth percentage at 10 uM incubated for 48 hrs by sulforhodamine B assay relative to control; type: functional; details: read-out: Activity
SK-MEL-5 [13] = experiment: Growth inhibition of human SK-MEL-5 cells assessed as growth percentage at 10 uM incubated for 48 hrs by sulforhodamine B assay relative to control; type: functional; details: read-out: Activity
KM12 = experiment: Growth inhibition of human KM12 cells assessed as growth percentage at 10 uM incubated for 48 hrs by sulforhodamine B assay relative to control; type: functional; details: read-out: Activity
T47D = experiment: Growth inhibition of human T47D cells assessed as growth percent at 0.1 uM incubated for 48 hrs by sulforhodamine B assay relative to control; type: functional; details: read-out: Activity
A498 = experiment: Growth inhibition of human A498 cells assessed as growth percentage at 1 uM incubated for 48 hrs by sulforhodamine B assay relative to control; type: functional; details: read-out: Activity
RXF 393 = experiment: Growth inhibition of human RXF 393 cells assessed as growth percentage at 100 uM incubated for 48 hrs by sulforhodamine B assay relative to control; type: functional; details: read-out: Activity
DU-145 [14] = experiment: Growth inhibition of human DU-145 cells assessed as growth percentage at 10 uM incubated for 48 hrs by sulforhodamine B assay relative to control; type: functional; details: read-out: Activity
SK-MEL-5 [15] = experiment: Growth inhibition of human SK-MEL-5 cells assessed as growth percentage at 0.01 uM incubated for 48 hrs by sulforhodamine B assay relative to control; type: functional; details: read-out: Activity
NCI-H522 [16] = experiment: Growth inhibition of human NCI-H522 cells incubated for 48 hrs by sulforhodamine B assay; type: functional
OVCAR-8 = experiment: Growth inhibition of human OVCAR-8 cells assessed as growth percentage at 10 uM incubated for 48 hrs by sulforhodamine B assay relative to control; type: functional; details: read-out: Activity
NCI/ADR-RES [17] = experiment: Growth inhibition of human NCI/ADR-RES cells assessed as growth percentage at 100 uM incubated for 48 hrs by sulforhodamine B assay relative to control; type: functional; details: read-out: Activity
CCRF-CEM [18] = experiment: Growth inhibition of human CCRF-CEM cells assessed as growth percentage at 0.1 uM incubated for 48 hrs by sulforhodamine B assay relative to control; type: functional; details: read-out: Activity
MOLT-4 = experiment: Growth inhibition of human MOLT-4 cells assessed as growth percentage at 10 uM incubated for 48 hrs by sulforhodamine B assay relative to control; type: functional; details: read-out: Activity
SR [19] = experiment: Growth inhibition of human SR cells assessed as growth percentage at 100 uM incubated for 48 hrs by sulforhodamine B assay relative to control; type: functional; details: read-out: Activity
COLO 205 = experiment: Growth inhibition of human COLO 205 cells incubated for 48 hrs by sulforhodamine B assay; type: functional
NCI-H460 [20] = experiment: Growth inhibition of human NCI-H460 cells assessed as growth percentage at 0.01 uM incubated for 48 hrs by sulforhodamine B assay relative to control; type: functional; details: read-out: Activity
[21] = read-out: LC50 (the source's name)

With `CCCCCCCC(=O)Nc1nc2[nH]c(CN3CCN(Cc4cccc(F)c4)CC3)c(CN3CCN(Cc4cccc(F)c4)CC3)c2c(=O)[nH]1` the growth at 100 µM (SK-MEL-5 [1]) was -81%, the growth at 100 µM (NCI-H460 [2]) was -85% and the growth at 0.01 µM (DU-145 [3]) was 100%. The growth at 1 µM (HCT-15 [4]) was 1%, the growth at 0.1 µM (LOX IMVI) was 94% and the growth at 0.01 µM (HT-29) was 96%. The growth at 10 µM (NCI-H522 [5]) was -71.5%, the GI50 (OVCAR-4) was 1210 nM and the TGI (OVCAR-4) was 2540 nM. The CC50 (OVCAR-4; [21]) was 5310 nM, the growth at 1 µM (SR [6]) was -31% and the growth at 100 µM (NCI-H322M) was -82%. For the same compound, the growth at 100 µM (CCRF-CEM [7]) was 8%, the GI50 (MDA-MB-231; 48 h) was 590 nM and the TGI (MDA-MB-231; Homo sapiens, MDA-MB-231) was 1960 nM. The GI50 (MDA-MB-231; Homo sapiens, MDA-MB-231, 48 h) was 587 nM, the CC50 (MDA-MB-231; Homo sapiens, MDA-MB-231, read-out: LC50 (the source's name)) was 5380 nM and the growth at 10 µM (TK-10) was -65%. It also gave a GI50 (SF-539) of 1560 nM, a growth at 0.01 µM (NCI/ADR-RES [8]) of 100% and a growth at 10 µM (SNB-75) of -99.2%. The growth at 10 µM (Malme-3M [9]) was -83.1%, the growth at 0.01 µM (MDA-MB-468) was 92% and the growth at 10 µM (M14) was -91.3%. It also gave a growth at 10 µM (A549) of -74.7%, a GI50 (Malme-3M [10]) of 670 nM and a TGI (Malme-3M [10]; Homo sapiens, Malme-3M) of 2240 nM. For the same compound, the GI50 (Malme-3M [10]; Homo sapiens, Malme-3M) was 672 nM, the CC50 (Malme-3M [10]; Homo sapiens, Malme-3M, read-out: LC50 (the source's name)) was 6110 nM and the inhibition [11] was 54.5%. The growth at 10 µM (UACC-62) was -93.9%, the growth at 10 µM (HCT-15 [12]) was -70.8% and the growth at 10 µM (SK-MEL-5 [13]) was 33.5%. The growth at 10 µM (KM12) was -88.9%, the growth at 0.1 µM (T47D) was 88% and the growth at 1 µM (A498) was 66%. It also gave a growth at 100 µM (RXF 393) of -95%, a growth at 10 µM (DU-145 [14]) of -74.7% and a growth at 0.01 µM (SK-MEL-5 [15]) of 100%. The GI50 (NCI-H522 [16]) was 1910 nM, the LC50 (NCI-H522 [16]) was 6880 nM and the TGI (NCI-H522 [16]) was 3620 nM. The growth at 10 µM (OVCAR-8) was -77.7%, the growth at 100 µM (NCI/ADR-RES [17]) was -86% and the growth at 0.1 µM (CCRF-CEM [18]) was 94%. The growth at 10 µM (MOLT-4) was -40%, the growth at 100 µM (SR [19]) was -12% and the GI50 (COLO 205) was 1400 nM. It also gave a TGI (COLO 205) of 2820 nM, a CC50 (COLO 205; [21]) of 5680 nM and a growth at 0.01 µM (NCI-H460 [20]) of 94%.
